What was measured:
Assay type in all cases: in vivo
C57BL/6 mice [1] = assay: Fibrosis of steatohepatitis caused by non-chemical injury (STZ + high-fat diet model), histology and blood/plasma biochemistry
From the text: (§1) In order to simulate an unhealthy diet tendency in humans, such as excess consumption of high caloric food, the example constructs an animal model using […] fed a high fat diet to evaluate the effects of chronic liver injury.
(§2) The assay simulates liver disease caused by a high fat diet through a “Metabolic Syndrome” model. That is, the model is different from conventional chemical induced models caused by toxic components such as CCl4. This model is distinguishable from the models caused by virus or alcohol.
(§3) The establishment of a long term high-fat diet is described as follows: First, the C57BL/6 mice were obtained from Charles River Laboratories Japan (Kanagawa, Japan). Animals were housed under specific-pathogen-free (SPF) conditions. The liver injury was developed in 18 male mice by subcutaneous injection of Streptozotocin (STZ) 2 days after birth (day 2). After 4 weeks, a high-fat commercial rodent diet ad libitum (CLEA JAPAN) were supplied. These mice were randomized into 3 groups before the treatment. The test compound was administered in a volume of 10 ml/kg twice a day for three weeks. In the control group (group A), six […] were fed with vehicle (corn oil from Sigma Chemical Co.) via intubation. Six mice in group B were orally administered vehicle and the test compound at a dose of 48 mg/kg twice a day (96 mg/kg per day).
(§4) (1) HE Staining. The HE staining method is performed as follows: Liver slices are cut from the livers' left side, embedded in Tissue-Tek® OCT™ Compounds (Sakura Finetek, Japan), snap frozen in liquid nitrogen, and stored at −80° C. 5 μm sections are cut, air-dried, fixed in acetone, air dried again and finally washed with phosphate buffered saline (PBS). Then, in the hematoxylin and eosin staining method, liver sections will be prefixed in a Bouin solution (formalin-acetic acid) for one week and then stained with Lillie-Mayer's Hematoxylin (Muto Pure Chemicals, Japan) and eosin solution (Wako, Japan) to visualize the lipid deposition, inflammations, cell necrosis and fibrosis, or stained with Masson's trichromic solution to visualize extra cellular matrix and collagen fibers of liver fibrosis development.
(§5) (2) Sirius Red Staining. The Sirius Red staining method is performed as follows: Liver slices are cut from the livers' left side, embedded in Tissue-Tek® OCT™ Compounds (Sakura Finetek, Japan), snap frozen in liquid nitrogen, and stored at −80° C. 5 μm sections are cut, air-dried, fixed in acetone, air dried again and finally washed with phosphate buffered saline (PBS). Then, liver sections are stained with a Picro-Sirius Red Solution (Waldeck GmbH & KG, Germany) to observe collagen deposition.
(§6) (3) Immunohistochemistry of Collagen Type 3. The immunohistochemistry assay for collagen Type 3 is performed as follows: Liver slices are cut from the livers' left side, embedded in Tissue-Tek® OCT™ Compounds (Sakura Finetek, Japan), snap frozen in liquid nitrogen, and stored at −80° C. 5 μm sections are cut, air-dried, fixed in acetone, air dried again and finally washed with phosphate buffered saline (PBS). For immunohistochemistry, endogenous peroxidase activity will be blocked by using 0.03% H2O2 for 5 minutes, followed by incubation with Block Ace (Dainippon Sumitomo Pharm, Japan) for 10 minutes. The sections will be incubated with the optimal dilution of anti-Type 3 collagen antibody overnight at 4° C. After incubation with an appropriate secondary antibody, the substrate reactions are performed using DAB/H2O2 solution (Nichirei, Japan).
(§7) (1) Whole Blood Glucose. Blood samples were collected in heparinized syringes (Novo-Heparin 5,000 units/5 ml, Mochida Pharmaceutical, Japan) by cardiac puncture, kept on ice and centrifuged at 1,000×g at 4° C. for 15 minutes. The supernatant was collected and stored at −80° C. until use. Blood glucose was measured in whole blood samples using G Checker (Sanko Junyaku Co. Ltd., Japan). […]

C57BL/6 mice [2] = assay: Fatty liver disease caused by non-chemical injury (STZ + high-fat diet Metabolic Syndrome model), histology and blood/plasma biochemistry; conditions: 48 mg/kg oral twice a day
From the text: as §1, §2, §3, §4, §5, §6, §7

C57BL/6 mice [3] = assay: Reduction of fatty liver condition by Compound 1 with ergosterol versus Compound 1 alone (STZ + high-fat diet model), liver histology; conditions: Compound 1 48 mg/kg twice a day oral, with or without ergosterol 12 mg/kg twice a day

SMILES: COC1=C(OC)C(O)C(C/C=C(\C)CC/C=C(\C)CCC=C(C)C)C(C)C1=O (stereo not shown) [Compound 1, 4-hydroxy-2,3-dimethoxy-6-methyl-5 (3,7,11-trimethyl-dodeca-2,6,10-trienyl)-cyclohex-2-enone]
- collagen deposition around the central veins and the bile ducts, Sirius red staining (C57BL/6 mice [1]; compared to vehicle Group A): reduced
- collagen fibers in the sinusoidal area, collagen Type 3 immunostaining (C57BL/6 mice [1]; compared to vehicle Group A): tended to reduce the thickness and/or the length of the collagen fibers
- macro-vesicular fat deposition, HE-stained liver sections (C57BL/6 mice [1]; compared to vehicle Group A): tended to decrease the macro-vesicular fat deposition
- plasma ALT level (C57BL/6 mice [1]; vehicle Group A 47±22): 38±11 U/L
- plasma AST level (C57BL/6 mice [1]; vehicle Group A 143±42, change not significant): 167±87 U/L
- whole blood glucose level (C57BL/6 mice [1]; vehicle Group A 728±109): 566 ± 65 mg/dL
- plasma triglyceride (TG) (C57BL/6 mice [1]; vehicle Group A 758±877): 704 ± 450 mg/dL
- collagen deposition around the central veins and the bile ducts, Sirius red staining (C57BL/6 mice [2]; compared to vehicle Group A): reduced
- collagen fibers in the sinusoidal area, collagen Type 3 immunostaining (C57BL/6 mice [2]; compared to vehicle Group A): tended to reduce the thickness and/or the length of the collagen fibers
- infiltration of inflammatory cells, HE-stained liver sections (C57BL/6 mice [2]; compared to vehicle Group A): tended to decrease the infiltration of inflammatory cells
- macro-vesicular fat deposition, HE-stained liver sections (C57BL/6 mice [2]; compared to vehicle Group A): tended to decrease the macro-vesicular fat deposition
- plasma ALT level (C57BL/6 mice [2]; vehicle Group A 64±64): 34±10 U/L
- plasma AST level (C57BL/6 mice [2]; vehicle Group A 202±177): 141±35 U/L
- whole blood glucose level (C57BL/6 mice [2]; vehicle Group A 636±137): 580 ± 122 mg/dL
- plasma triglyceride (TG) (C57BL/6 mice [2]; vehicle Group A 643±402): 229 ± 144 mg/dL
- collagen deposition, Sirius red staining (C57BL/6 mice [3]; vs control group): tended only slightly to decrease the collagen deposition
- collagen deposition (thickness of collagen fibers in the sinusoidal area), collagen Type 3 immunostaining (C57BL/6 mice [3]; vs vehicle): tended to reduce the collagen deposition
- infiltration of inflammatory cells, HE-stained liver sections (C57BL/6 mice [3]; vs vehicle): did not affect the infiltration of inflammatory cells
- macro vesicular fat deposition, HE-stained liver sections (C57BL/6 mice [3]; vs vehicle): tended to decrease the macro vesicular fat deposition

— patent US10959963B2, “Method for the treatment of fatty liver disease” (Golden Biotechnology Corporation, priority 2013, dated 2021)
